Data from US12427179B2, “Compositions and methods for diagnosis and treatment of neurodegenerative diseases” (EPITRACKER, INC., priority 2019, dated 2025).

Legend:
[1] = system: SAg: Venular endothelial cells, peripheral blood mononuclear cells (TCR ligands); experiment: BioMAP SAg system; assay type: cell-based, human
Experimental: (§1) Anti-inflammatory phenotypic profiling was conducted across 12 human primary cell-based systems as part of DiscoverX's BioMAP Diversity Plus program. These systems are designed to model complex human tissue and disease biology of the vasculature, skin, lung, and inflammatory tissues. Quantitative measurements of biomarker activities across this broad panel were used to assess each biochemical's anti-inflammatory activity at four concentrations ([…] and 2.2, 6.7 and 20 μM). […] Protein-based biomarkers from activated cell systems were measured and compared with controls. Biomarker activities were annotated when 2 or more consecutive concentrations change in the same directions relative to vehicle controls, were outside of the significance envelope and had at least one concentration with an effect size>20% (log 10 ratio)>0.1.
In this system, human primary peripheral blood mononuclear cells and human umbilical vein endothelial cells were stimulated with T-cell receptor ligands and incubated with the test agent, drug control, or vehicle control for 24 hours. A negative, non-stimulated system was also included. […] This antiproliferative activity was lost at higher concentrations (20 μM). In this system, T cell proliferation is considered a critical event driving an inflammatory response.
(§2) The Diversity PLUS panel allows test agent characterization in an unbiased way across a broad set of systems modeling various human disease states. These systems are designed to model complex human tissue and disease biology of the vasculature, skin, lung, and inflammatory tissues. Quantitative measurements of 148 biomarker activities across this broad panel, along with comparative analysis of biological activities from known bioactive agents, were used to predict and compare the efficacy and function of each selected compound at selected concentrations (6.7 and/or 20 μM). […]
(§3) Each test agent generates a signature BioMAP profile that is created from the changes in protein biomarker readouts within individual system environments. Biomarker readouts (7-17 per system) are selected for therapeutic and biological relevance, are predictive for disease outcomes or specific drug effects and are validated using agents with known mechanism of action (MoA). Each readout is measured quantitatively by immune-based methods that detect protein (e.g., ELISA) or functional assays that measure proliferation and viability. BioMAP readouts are diverse and include cell surface receptors, cytokines, chemokines, matrix molecules and enzymes. In total, the Diversity PLUS panel contains 148 biomarker readouts that capture biological changes that occur within the physiological context of the particular BioMAP system. […]

[2] = white powder; cited from earlier work
[3] = system: BT: Peripheral blood mononuclear cells, B cells (α-IgM, TCR ligands); experiment: BioMAP BT system; assay type: cell-based, human; conditions: BT system; at the compound's active concentration
Experimental: as §1
In the first system, human primary peripheral blood mononuclear cells and venular endothelial cells were stimulated with lipopolysaccharide (LPS) and incubated with the test agent, drug control, or vehicle control for 24 hours. In the second system, peripheral blood mononuclear cells and B cells were stimulated with α-IgM and T cell receptor ligands and incubated with the test agent, drug control, or vehicle control for 24 hours. In both systems, a negative, non-stimulated system was also included.
(§4) The Diversity PLUS panel allows test agent characterization in an unbiased way across a broad set of systems modeling various human disease states. These systems are designed to model complex human tissue and disease biology of the vasculature, skin, lung, and inflammatory tissues. Quantitative measurements of 148 biomarker activities across this broad panel, along with comparative analysis of biological activities from known bioactive agents, were used to predict and compare the efficacy and function of each selected compound at selected concentrations (6.7 and/or 20 μM).
(§5) BioMAP systems are constructed with one or more primary cell types from healthy human donors, with stimuli (such as cytokines or growth factors) added to capture relevant signaling networks that naturally occur in human tissue or pathological conditions. Vascular biology is modeled in both a Th1 (3C system) and a Th2 (4H system) inflammatory environment, as well as in a Th1 inflammatory state specific to arterial smooth muscle cells (CASM3C system). Additional systems recapitulate aspects of the systemic immune response including monocyte-driven Th1 inflammation (LPS system) or T cell stimulation (SAg system), chronic Th1 inflammation driven by macrophage activation (lMphg system) and the T cell-dependent activation of B cells that occurs in germinal centers (BT system). The BE3C system (Th1) and the BF4T system (Th2) represent airway inflammation of the lung, while the MyoF system models myofibroblast-lung tissue remodeling. Lastly, skin biology is addressed in the KF3CT system modeling Th1 cutaneous inflammation and the HDF3CGF system modeling wound healing.
as §3

[4] = system: BE3C: Bronchial epithelial cells (IL-1β, IFNγ, TNFα); experiment: BioMAP BE3C system; assay type: cell-based, human; conditions: at the compound's active concentration
From the text: The Diversity PLUS panel allows test agent characterization in an unbiased way across a broad set of systems modeling various human disease states. These systems are designed to model complex human tissue and disease biology of the vasculature, skin, lung, and inflammatory tissues.
as §5
(§6) Each test agent generates a signature BioMAP profile that is created from the changes in protein biomarker readouts within individual system environments. Biomarker readouts (7-17 per system) are selected for therapeutic and biological relevance, are predictive for disease outcomes or specific drug effects and are validated using agents with known mechanism of action (MoA). Each readout is measured quantitatively by immune-based methods that detect protein (e.g., ELISA) or functional assays that measure proliferation and viability. BioMAP readouts are diverse and include cell surface receptors, cytokines, chemokines, matrix molecules and enzymes.
(§7) Activated BioMAP systems were incubated with each compound for 24 to 72 hours. Protein-based biomarkers from activated cell systems were measured and compared with non-treated control systems.

[5] = system: KF3CT: Keratinocytes, dermal fibroblasts; experiment: BioMAP KF3CT system; assay type: cell-based, human; conditions: at the compound's active concentration
From the text: as §2
as §6, with “enzymes. […]” for “enzymes.”

[6] = system: MyoF: Lung fibroblasts (TGFβ, TNFα); experiment: BioMAP MyoF system; assay type: cell-based, human; conditions: at the compound's active concentration
From the text: as §4, §5, §3, §7

[7] = system: HDF3CGF: Dermal fibroblasts; experiment: BioMAP HDF3CGF system; assay type: cell-based, human; conditions: at the compound's active concentration
From the text: as §4, §5
Each test agent generates a signature BioMAP profile that is created from the changes in protein biomarker readouts within individual system environments. Biomarker readouts (7-17 per system) are selected for therapeutic and biological relevance, are predictive for disease outcomes or specific drug effects and are validated using agents with known mechanism of action (MoA). Each readout is measured quantitatively by immune-based methods that detect protein (e.g., ELISA) or functional assays that measure proliferation and viability. BioMAP readouts are diverse and include cell surface receptors, cytokines, chemokines, matrix molecules and enzymes. In total, the Diversity PLUS panel contains 148 biomarker readouts that capture biological changes that occur within the physiological context of the particular BioMAP system. Specific BioMAP activities have been correlated to in vivo biology, and multiparameter BioMAP profiles have been used to distinguish compounds based on MoA and target selectivity across diverse physiological systems.
as §7

[8] = system: human primary cell-based systems; experiment: BioMAP Diversity PLUS panel, phenotypic profiling; conditions: tested at 6.7 and/or 20 μM; 24 to 72 hours
Experimental: Anti-inflammatory phenotypic profiling was conducted across 12 human primary cell-based systems as part of DiscoverX's BioMAP Diversity Plus program. These systems are designed to model complex human tissue and disease biology of the vasculature, skin, lung, and inflammatory tissues. Quantitative measurements of biomarker activities across this broad panel were used to assess each biochemical's anti-inflammatory activity at four concentrations ([…] and 2.2, 6.7 and 20 μM). […] Protein-based biomarkers from activated cell systems were measured and compared with controls.
as §4, §5
Each test agent generates a signature BioMAP profile that is created from the changes in protein biomarker readouts within individual system environments. Biomarker readouts (7-17 per system) are selected for therapeutic and biological relevance, are predictive for disease outcomes or specific drug effects and are validated using agents with known mechanism of action (MoA). Each readout is measured quantitatively by immune-based methods that detect protein (e.g., ELISA) or functional assays that measure proliferation and viability. BioMAP readouts are diverse and include cell surface receptors, cytokines, chemokines, matrix molecules and enzymes. In total, the Diversity PLUS panel contains 148 biomarker readouts that capture biological changes that occur within the physiological context of the particular BioMAP system.
as §7

N[C@@H](CC(O)C(=O)O)C(=O)O (some centres unmarked) [4-hydroxyglutamate]
T cell antiproliferative activity ([1]; higher concentrations (20 μM), 24 hours): lost | Stability of the pure powder [2]: stable at room temperature

Nc1ncnc2c1ncn2[C@@H]1O[C@H](CSCC[C@H](N)C(=O)O)[C@@H](O)[C@H]1O [S-adenosylhomocysteine (SAH), S-adenosylhomocysteine]
T cell proliferation, log10 reduction vs nontreated controls ([1]; SAg system, at the compound's active concentration): −0.21 log10 | Secreted IgG, log10 reduction vs nontreated controls [3]: −0.29 log10 | CXCL11, log10 reduction vs nontreated controls [4]: −0.13 log10 | HLA-DR, log10 reduction vs nontreated controls [4]: −0.13 log10 | IL-8, log10 reduction vs nontreated controls [4]: −0.13 log10 | MMP-9, log10 reduction vs nontreated controls [4]: −0.24 log10 | MMP-9, log10 reduction vs nontreated controls [5]: −0.10 log10 | PAI-1, log10 reduction vs nontreated controls [5]: −0.28 log10 | Alpha-SM actin, log10 reduction vs nontreated controls [6]: −0.18 log10 | Collagen I, log10 reduction vs nontreated controls [6]: −0.15 log10 | Collagen III, log10 reduction vs nontreated controls [6]: −0.27 log10 | VCAM-1, log10 reduction vs nontreated controls [6]: −0.12 log10 | CXCL10, log10 reduction vs nontreated controls [7]: −0.19 log10 | CXCL11, log10 reduction vs nontreated controls [7]: −0.25 log10 | Collagen III, log10 reduction vs nontreated controls [7]: −0.21 log10 | Fibroblast proliferation, log10 reduction vs nontreated controls [7]: −1.10 log10 | M-CSF, log10 reduction vs nontreated controls [7]: −0.19 log10 | MCP-1, log10 reduction vs nontreated controls [7]: −0.14 log10 | TIMP-1, log10 reduction vs nontreated controls [7]: −0.14 log10 | VCAM-1, log10 reduction vs nontreated controls [7]: −0.17 log10 | Active concentrations [8]: 20 µM
